Results published in patent publication US6407041B1, “Substituted 2,4-diamino-1,3,5-triazines” (Bayer Aktiengesellschaft, priority 1997, dated 2002).
Each block holds one compound with its values, some of them ahead of it.

Tests used:
weeds [1] = experiment: Pre-emergence test, overall action; assay type: in vivo; settings: result in words
Protocol: (§1) Solvent: 5 parts by weight of acetone
(§2) Emulsifier: 1 part by weight of alkylaryl polyglycol ether
(§3) To produce a suitable preparation of active compound, 1 part by weight of active compound is mixed with the stated amount of solvent, the stated amount of emulsifier is added and the concentrate is diluted with water to the desired concentration.
(§4) Seeds of the test plants are sown in normal soil. After about 24 hours, the soil is sprayed with the preparation of active compound such that the particular amounts of active compound desired are applied per unit area. The concentration of the spray liquor is chosen so that the particular amounts of active compound desired are applied in 1000 l of water/ha.
(§5) After three weeks, the degree of damage to the plants is rated in % damage in comparison with the development of the untreated control.
(§6) 0%=no effect (like untreated control)

weeds [2] = experiment: Post-emergence test, overall action; assay type: in vivo; settings: result in words
Protocol: as §1, §2
(§7) To produce a suitable preparation of active compound, I part by weight of active compound is mixed with the stated amount of solvent, the stated amount of emulsifier is added and the concentrate is diluted with water to the desired concentration.
as §4, with “Test plants having a height” for “Seeds”, “5-15 cm” for “the test plants”, “are” for “are sown in normal soil. After about 24 hours, the soil is”
as §5, §6

Amaranthus [3] = experiment: Post-emergence test/greenhouse; assay type: in vivo; settings: 1000 g of ai./ha, test plants 5-15 cm, rated after three weeks vs untreated control, 0%=no effect, 100%=total destruction
Protocol: as §1, §2, §7
as §4, with “Test plants having a height” for “Seeds”, “5-15 cm” for “the test plants”, “are” for “are sown in normal soil. After about 24 hours, the soil is”
as §5, §6

Alopecurus [4] = experiment: Post-emergence test/greenhouse; assay type: in vivo; settings: 1000 g of ai./ha, test plants 5-15 cm, rated after three weeks vs untreated control, 0%=no effect, 100%=total destruction
Protocol: as §1, §2, §7
as §4, with “Test plants having a height” for “Seeds”, “5-15 cm” for “the test plants”, “are” for “are sown in normal soil. After about 24 hours, the soil is”
as §5, §6

Sinapis [5] = experiment: Post-emergence test/greenhouse; assay type: in vivo; settings: 1000 g of ai./ha, test plants 5-15 cm, rated after three weeks vs untreated control, 0%=no effect, 100%=total destruction
Protocol: as §1, §2, §7
as §4, with “Test plants having a height” for “Seeds”, “5-15 cm” for “the test plants”, “are” for “are sown in normal soil. After about 24 hours, the soil is”
as §5, §6

Abutilon [6] = experiment: Post-emergence test/greenhouse; assay type: in vivo; settings: 1000 g of ai./ha, test plants 5-15 cm, rated after three weeks vs untreated control, 0%=no effect, 100%=total destruction
Protocol: as §1, §2, §7
as §4, with “Test plants having a height” for “Seeds”, “5-15 cm” for “the test plants”, “are” for “are sown in normal soil. After about 24 hours, the soil is”
as §5, §6

Galium [7] = experiment: Post-emergence test/greenhouse; assay type: in vivo; settings: 1000 g of ai./ha, test plants 5-15 cm, rated after three weeks vs untreated control, 0%=no effect, 100%=total destruction
Protocol: as §1, §2, §7
as §4, with “Test plants having a height” for “Seeds”, “5-15 cm” for “the test plants”, “are” for “are sown in normal soil. After about 24 hours, the soil is”
as §5, §6

Maize = experiment: Pre-emergence test (greenhouse), crop plant; assay type: in vivo; settings: 1000 g of ai./ha, rated after three weeks vs untreated control, 0%=no effect, 100%=total destruction
Protocol: as §1, §2, §3, §4, §5, §6

Amaranthus [8] = experiment: Pre-emergence test (greenhouse); assay type: in vivo; settings: 1000 g of ai./ha, rated after three weeks vs untreated control, 0%=no effect, 100%=total destruction
Protocol: as §1, §2, §3, §4, §5, §6

Alopecurus [9] = experiment: Pre-emergence test (greenhouse); assay type: in vivo; settings: 1000 g of ai./ha, rated after three weeks vs untreated control, 0%=no effect, 100%=total destruction
Protocol: as §1, §2, §3, §4, §5, §6

Sinapis [10] = experiment: Pre-emergence test (greenhouse); assay type: in vivo; settings: 1000 g of ai./ha, rated after three weeks vs untreated control, 0%=no effect, 100%=total destruction
Protocol: as §1, §2, §3, §4, §5, §6

Abutilon [11] = experiment: Pre-emergence test (greenhouse); assay type: in vivo; settings: 1000 g of ai./ha, rated after three weeks vs untreated control, 0%=no effect, 100%=total destruction
Protocol: as §1, §2, §3, §4, §5, §6

Setaria = experiment: Pre-emergence test (greenhouse); assay type: in vivo; settings: 1000 g of ai./ha, rated after three weeks vs untreated control, 0%=no effect, 100%=total destruction
Protocol: as §1, §2, §3, §4, §5, §6

Galium [12] = experiment: Pre-emergence test (greenhouse); assay type: in vivo; settings: 1000 g of ai./ha, rated after three weeks vs untreated control, 0%=no effect, 100%=total destruction
Protocol: as §1, §2, §3, §4, §5, §6

Compound: CCc1nc(N)nc(NC(CC)COCc2ccc(F)cc2)n1 (racemic) [Example 1, 2-amino-4-ethyl-6-[1-(4-fluorobenzyloxymethyl)-propylamino]-1,3,5-triazine]
melting point: 96 °C

Compound: CCC(COCc1cccc(Cl)c1)Nc1nc(N)nc(C(C)(C)F)n1 (centres unmarked) [drawing 498]
degree of damage to the plants, Amaranthus (Amaranthus [3]): 100%
degree of damage to the plants, Alopecurus (Alopecurus [4]): 100%
degree of damage to the plants, Sinapis (Sinapis [5]): 100%
degree of damage to the plants, Abutilon (Abutilon [6]): 100%
degree of damage to the plants, Galium (Galium [7]): 95%

Compound: CCC(COCc1cccc(Cl)c1)Nc1nc(N)nc(C(C)(C)F)n1 (centres unmarked) [drawing 496]
degree of damage to the plants, Maize (Maize): 10%
degree of damage to the plants, Amaranthus (Amaranthus [8]): 100%
degree of damage to the plants, Alopecurus (Alopecurus [9]): 95%
degree of damage to the plants, Sinapis (Sinapis [10]): 90%
degree of damage to the plants, Abutilon (Abutilon [11]): 95%

Compound: CCC(COCc1ccccc1)Nc1nc(N)nc(C(C)(C)F)n1 (centres unmarked) [drawing 497]
degree of damage to the plants, Amaranthus (Amaranthus [3]): 100%
degree of damage to the plants, Alopecurus (Alopecurus [4]): 95%
degree of damage to the plants, Sinapis (Sinapis [5]): 100%
degree of damage to the plants, Abutilon (Abutilon [6]): 100%
degree of damage to the plants, Galium (Galium [7]): 90%

Compound: CCC(COCc1ccccc1)Nc1nc(N)nc(C(C)(C)F)n1 (centres unmarked) [drawing 495]
degree of damage to the plants, Amaranthus (Amaranthus [8]): 100%
degree of damage to the plants, Setaria (Setaria): 100%
degree of damage to the plants, Alopecurus (Alopecurus [9]): 100%
degree of damage to the plants, Sinapis (Sinapis [10]): 100%
degree of damage to the plants, Abutilon (Abutilon [11]): 100%
degree of damage to the plants, Galium (Galium [12]): 100%

Now from value to compound, other results behind:

melting point: 114 °C
Compound: CCC(COCc1ccccc1)Nc1nc(N)nc(C(C)(C)F)n1 (centres unmarked) [Example 8]
action against weeds (weeds [1]): very strong action against weeds
action against weeds (weeds [2]): very strong action against weeds

melting point: 104 °C
Compound: CCC(COCc1cccc(Cl)c1)Nc1nc(N)nc(C(C)(C)F)n1 (centres unmarked) [Example 14]
action against weeds (weeds [1]): very strong action against weeds
action against weeds (weeds [2]): very strong action against weeds

melting point: 108 °C
Compound: CCC(COCc1ccccc1C)Nc1nc(NC(C)=O)nc(C(C)(C)F)n1 (racemic) [Example 2]
